# Reference: patent US10059713B2 (Takeda Pharmaceutical Company Limited, priority 2014, dated 2018)
# Target: human GPR43 (Homo sapiens (Human), UniProt O15552)
# Test: Ca-Flux functional assay: determination of agonist/positive allosteric modulator (PAM) activity
# Assay type: cell-based
# Details: CHO-K1 Gα16 cells stably expressing human GPR43; compound added with EC20 sodium acetate; intracellular Ca2+ by FLIPR; does not distinguish agonist from PAM
# Method in brief: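 Agonist or PAM activity read as intracellular Ca2+ rise by FLIPR after adding compound plus EC20 acetate, acetate EC20 set from a prior curve. Cells: CHO-K1 Gα16 with stable human GPR43. EC50 from ten-point half-log curves starting 10 μM.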
# Chain of human GPR43 (O15552 whole entry): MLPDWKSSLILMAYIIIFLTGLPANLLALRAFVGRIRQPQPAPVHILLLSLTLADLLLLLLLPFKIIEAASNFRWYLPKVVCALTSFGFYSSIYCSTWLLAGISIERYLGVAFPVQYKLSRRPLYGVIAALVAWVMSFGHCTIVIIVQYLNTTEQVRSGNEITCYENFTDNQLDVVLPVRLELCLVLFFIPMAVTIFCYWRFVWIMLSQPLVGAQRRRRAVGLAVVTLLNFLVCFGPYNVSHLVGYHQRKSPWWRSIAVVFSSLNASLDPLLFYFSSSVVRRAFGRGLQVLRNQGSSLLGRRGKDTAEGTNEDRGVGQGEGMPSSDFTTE
row,SMILES,EC50
1,"Nc1[nH]c2c(OCC3CCOC3)ncnc2c1S(=O)(=O)c1ccccc1 (stereo not shown) [Example 119, 7-(benzenesulfonyl)-4-(oxolan-3-ylmethoxy)-5H-pyrrolo[3,2-d]pyrimidin-6-amine]",2960 nM
2,"Cc1nc(OCC2CC2)c2[nH]c(N)c(S(=O)(=O)c3cccc(F)c3)c2n1 [Example 194, 4-(cyclopropylmethoxy)-7-(3-fluorobenzenesulfonyl)-2-methyl-5H-pyrrolo[3,2-d]pyrimidin-6-amine]",475 nM
3,"Nc1[nH]c2c(C3CCCCC3)ncnc2c1S(=O)(=O)C1CCCCC1 [Example 51, 7-(cyclohexanesulfonyl)-4-cyclohexyl-5H-pyrrolo[3,2-d]pyrimidin-6-amine]",162 nM
4,"CN(Cc1cccc(Cl)c1)c1ncnc2c(S(=O)(=O)c3ccccc3)c(N)[nH]c12 [Example 90, 7-(benzenesulfonyl)-4-N-[(3-chlorophenyl)methyl]-4-N-methyl-5H-pyrrolo[3,2-d]pyrimidine-4,6-diamine]",41 nM
5,"CSc1nc(N2CCOC(C)C2)c2[nH]c(N)c(S(=O)(=O)c3cccc(F)c3)c2n1 (stereo not shown) [Example 264, 7-(3-fluorobenzenesulfonyl)-4-(2-methylmorpholin-4-yl)-2-(methylsulfanyl)-5H-pyrrolo[3,2-d]pyrimidin-6-amine]",45 nM
6,"CC(Oc1ncnc2c(S(=O)(=O)c3ccccc3)c(N)[nH]c12)C1CCCC1 (stereo not shown) [Example 212, 7-(benzenesulfonyl)-4-(1-cyclopentylethoxy)-5H-pyrrolo[3,2-d]pyrimidin-6-amine]",11 nM
7,"Nc1[nH]c2c(N3CCOC(C4CC4)C3)ncnc2c1S(=O)(=O)c1ccccc1 (stereo not shown) [Example 80, 7-(benzenesulfonyl)-4-(2-cyclopropylmorpholin-4-yl)-5H-pyrrolo[3,2-d]pyrimidin-6-amine]",133 nM
8,"Cc1nc(OC2CCC2)c2[nH]c(N)c(S(=O)(=O)c3ccccc3)c2n1 [Example 252, 7-(benzenesulfonyl)-4-cyclobutoxy-2-methyl-5H-pyrrolo[3,2-d]pyrimidin-6-amine]",67 nM
9,"COc1ccc(S(=O)(=O)c2c(N)[nH]c3c(N4CCO[C@H](C(F)(F)F)C4)nc(C)nc23)c(F)c1 [Example 282, 7-(2-fluoro-4-methoxybenzenesulfonyl)-2-methyl-4-[(2S)-2-(trifluoromethyl)morpholin-4-yl]-5H-pyrrolo[3,2-d]pyrimidin-6-amine]",1 nM
10,"CC1CN(c2ncnc3c(S(=O)(=O)c4ccc(C(F)(F)F)cc4)c(N)[nH]c23)CCO1 (stereo not shown) [Example 136, 4-(2-methylmorpholin-4-yl)-7-[4-(trifluoromethyl)benzenesulfonyl]-5H-pyrrolo[3,2-d]pyrimidin-6-amine]",118 nM
11,"Nc1[nH]c2c(N3CCOC4CCCC43)ncnc2c1S(=O)(=O)c1ccccc1 (stereo not shown) [Example 215, 7-(benzenesulfonyl)-4-{octahydrocyclopenta[b]morpholin-4-yl}-5H-pyrrolo[3,2-d]pyrimidin-6-amine]",61 nM
12,"CC1(C)CN(c2ccnc3c(S(=O)(=O)c4ccccc4)c(N)[nH]c23)CCO1 [Example 277, 3-(benzenesulfonyl)-7-(2,2-dimethylmorpholin-4-yl)-H-pyrrolo[3,2-b]pyridin-2-amine]",40 nM
13,"Nc1[nH]c2c(N3CCCC(F)(F)C3)ncnc2c1S(=O)(=O)c1ccccc1 [Example 34, 7-(benzenesulfonyl)-4-(3,3-difluoropiperidin-1-yl)-5H-pyrrolo[3,2-d]pyrimidin-6-amine]",89 nM
14,"Cc1ccc(S(=O)(=O)c2c(N)[nH]c3c(N4CCOC(C)C4)ncnc23)c(F)c1 (stereo not shown) [Example 146, 7-(2-fluoro-4-methylbenzenesulfonyl)-4-(2-methylmorpholin-4-yl)-5H-pyrrolo[3,2-d]pyrimidin-6-amine]",9 nM
15,"COc1ccc(S(=O)(=O)c2c(N)[nH]c3c(N4C[C@@H](C)O[C@@H](C)C4)ncnc23)cc1 [Example 130, 4-[(2R,6S)-2,6-dimethylmorpholin-4-yl]-7-(4-methoxybenzenesulfonyl)-5H-pyrrolo[3,2-d]pyrimidin-6-amine]",20 nM
16,"Nc1[nH]c2c(C3=CCCCC3)ncnc2c1S(=O)(=O)c1ccccc1 [Example 2, 7-(benzenesulfonyl)-4-(cyclohex-1-en-1-yl)-5H-pyrrolo[3,2-d]pyrimidin-6-amine]",21 nM
17,"Nc1[nH]c2c(N(CC3CC3)CC3CCCO3)ncnc2c1S(=O)(=O)c1ccccc1 (stereo not shown) [Example 63, 7-(benzenesulfonyl)-4-N-(cyclopropylmethyl)-4-N-(oxolan-2-ylmethyl)-5H-pyrrolo[3,2-d]pyrimidine-4,6-diamine]",125 nM
18,"Nc1[nH]c2c(CCC3CC3)ncnc2c1S(=O)(=O)c1ccccc1 [Example 13, 7-(benzenesulfonyl)-4-(2-cyclopropylethyl)-5H-pyrrolo[3,2-d]pyrimidin-6-amine]",267 nM
19,"CC1CN(c2ncnc3c(S(=O)(=O)c4cc(F)cc(F)c4)c(N)[nH]c23)CCO1 (stereo not shown) [Example 147, 7-(3,5-difluorobenzenesulfonyl)-4-(2-methylmorpholin-4-yl)-5H-pyrrolo[3,2-d]pyrimidin-6-amine]",88 nM

row,SMILES,EC50
1,"C=C(C)c1nc(C)nc2c(S(=O)(=O)c3ccccc3)c(N)[nH]c12 [Example 149, 7-(benzenesulfonyl)-2-methyl-4-(prop-1-en-2-yl)-5H-pyrrolo[3,2-d]pyrimidin-6-amine]",252 nM
2,"Nc1[nH]c2c(C3CCCCC3)ncnc2c1S(=O)(=O)c1ccc(F)c(F)c1 [Example 60, 4-cyclohexyl-7-(3,4-difluorobenzenesulfonyl)-5H-pyrrolo[3,2-d]pyrimidin-6-amine]",182 nM
3,"Cc1nc(N2CCOC(C)C2)c2[nH]c(N)c(S(=O)(=O)c3cccc(F)c3F)c2n1 (stereo not shown) [Example 182, 7-(2,3-difluorobenzenesulfonyl)-2-methyl-4-(2-methylmorpholin-4-yl)-5H-pyrrolo[3,2-d]pyrimidin-6-amine]",6 nM
4,"CCN(CC1CCCCC1)c1ncnc2c(S(=O)(=O)c3ccccc3)c(N)[nH]c12 [Example 83, 7-(benzenesulfonyl)-4-N-(cyclohexylmethyl)-4-N-ethyl-5H-pyrrolo[3,2-d]pyrimidine-4,6-diamine]",100 nM
5,"Nc1[nH]c2c(NCC3CC3)ncnc2c1S(=O)(=O)c1ccccc1 [Example 70, 7-(benzenesulfonyl)-4-N-(cyclopropylmethyl)-5H-pyrrolo[3,2-d]pyrimidine-4,6-diamine]",763 nM
6,"Nc1[nH]c2c(C3=CCCCC3)nncc2c1S(=O)(=O)c1ccccc1 [Example 227, 3-(benzenesulfonyl)-7-(cyclohex-1-en-1-yl)-1H-pyrrolo[2,3-d]pyridazin-2-amine]",103 nM
7,"Cc1nc(N2CCOC3(CCCC3)C2)c2[nH]c(N)c(S(=O)(=O)c3cccc(F)c3)c2n1 [Example 199, 7-(3-fluorobenzenesulfonyl)-2-methyl-4-{6-oxa-9-azaspiro[4.5]decan-9-yl}-5H-pyrrolo[3,2-d]pyrimidin-6-amine]",25 nM
8,"Nc1[nH]c2c(OCC3CC3)ncnc2c1S(=O)(=O)c1ccccc1 [Example 55, 7-(benzenesulfonyl)-4-(cyclopropylmethoxy)-5H-pyrrolo[3,2-d]pyrimidin-6-amine]",131 nM
9,"Cc1nc(N2CCOC3(CC3)C2)c2[nH]c(N)c(S(=O)(=O)c3ccccc3)c2n1 [Example 205, 7-(benzenesulfonyl)-2-methyl-4-{4-oxa-7-azaspiro[2.5]octan-7-yl}-5H-pyrrolo[3,2-d]pyrimidin-6-amine]",7 nM
10,"CC1CN(c2nc(C(F)(F)F)nc3c(S(=O)(=O)c4cccc(F)c4)c(N)[nH]c23)CCO1 (stereo not shown) [Example 265, 7-(3-fluorobenzenesulfonyl)-4-(2-methylmorpholin-4-yl)-2-(trifluoromethyl)-5H-pyrrolo[3,2-d]pyrimidin-6-amine]",68 nM
11,"Nc1[nH]c2c(-c3ccncc3)ncnc2c1S(=O)(=O)c1ccccc1 [Example 66, 7-(benzenesulfonyl)-4-(pyridin-4-yl)-5H-pyrrolo[3,2-d]pyrimidin-6-amine]",2410 nM
12,"COc1ccc(N(C)S(=O)(=O)c2c(N)[nH]c3c(C4=CCCCC4)ncnc23)cc1 [Example 14, 6-amino-4-(cyclohex-1-en-1-yl)-N-(4-methoxyphenyl)-N-methyl-5H-pyrrolo[3,2-d]pyrimidine-7-sulfonamide]",2580 nM
13,"Nc1[nH]c2c(C3=CCC(F)(F)CC3)ncnc2c1S(=O)(=O)c1ccccc1 [Example 127, 7-(benzenesulfonyl)-4-(4,4-difluorocyclohex-1-en-1-yl)-5H-pyrrolo[3,2-d]pyrimidin-6-amine]",36 nM
14,"CC1CN(c2ncnc3c(S(=O)(=O)c4ccc(Cl)c(F)c4)c(N)[nH]c23)CCO1 (stereo not shown) [Example 143, 7-(4-chloro-3-fluorobenzenesulfonyl)-4-(2-methylmorpholin-4-yl)-5H-pyrrolo[3,2-d]pyrimidin-6-amine]",35 nM
15,"Cc1nc(N2CCC(F)(F)CC2)c2[nH]c(N)c(S(=O)(=O)c3cccc(F)c3)c2n1 [Example 181, 4-(4,4-difluoropiperidin-1-yl)-7-(3-fluorobenzenesulfonyl)-2-methyl-5H-pyrrolo[3,2-d]pyrimidin-6-amine]",82 nM
16,"COc1ccc(S(=O)(=O)c2c(N)[nH]c3c(N4CCOC(C)C4)ncnc23)cc1F (stereo not shown) [Example 124, 7-(3-fluoro-4-methoxybenzenesulfonyl)-4-(2-methylmorpholin-4-yl)-5H-pyrrolo[3,2-d]pyrimidin-6-amine]",63 nM
17,"Cc1nc(N2CCOC3(CCC3)C2)c2[nH]c(N)c(S(=O)(=O)c3ccccc3F)c2n1 [Example 237, 7-(2-fluorobenzenesulfonyl)-2-methyl-4-{5-oxa-8-azaspiro[3.5]nonan-8-yl}-5H-pyrrolo[3,2-d]pyrimidin-6-amine]",8 nM
18,"Cc1nc(OCC(C)(C)C)c2[nH]c(N)c(S(=O)(=O)c3ccccc3)c2n1 [Example 250, 7-(benzenesulfonyl)-4-(2,2-dimethylpropoxy)-2-methyl-5H-pyrrolo[3,2-d]pyrimidin-6-amine]",114 nM
